Assay results taken from patent US20150253591A1, “DYE COMPOSITION FOR ELECTROWETTING DISPLAY AND ELECTROWETTING DISPLAY DEVICE” (FUJIFILM CORPORATION, priority 2012, published 2015).
Values belong to the compound of their own block, whether it stands above or below them.

Legend:
Type in all cases: physicochemical
[1] = Solubility of dye in nonpolar solvent; details: for Solubility Dihexyl ether: in dihexyl ether at 25° C. and 0.1 MPa; for Solubility n-Decane: in n-decane at 25° C. and 0.1 MPa
Description: Each of the prepared 20% by mass solutions (dye compositions) was heated at 50° C. and then left standing at room temperature for 12 hours to obtain a supernatant liquid. The amount of the unsolved dye was weighed and the solubility of each pigment in dihexyl ether or n-decane at 25° C. and 0.1 MPa was calculated.

[2] = Low temperature suitability of dye composition; parameters: key: A dye composition was maintained in a liquid state.; B: A dye composition was not maintained in a liquid state, and changed to a solid state; details: -41° C. for 12 hours; for Low temperature suitability, Dihexyl ether (present invention): 20% by mass dye in dihexyl ether; for Low temperature suitability, Dipentyl ether (present invention): 20% by mass dye in dipentyl ether; for Low temperature suitability, Decane (comparative): 20% by mass dye in n-decane
Description: Each dye composition was placed in a vial, and the vial was left standing in an ice bath (calcium chloride+ice) at −41° C. for 12 hours. The condition of each dye composition after standing was observed and evaluated according to the following evaluation criteria.
A: A dye composition was maintained in a liquid state.
B: A dye composition was not maintained in a liquid state, and changed to a solid state.

[3] = High temperature suitability of dye composition; details: 180° C. for 2 hours without a cap; for High temperature suitability, Dihexyl ether (present invention): 20% by mass dye in dihexyl ether; for High temperature suitability, Dipentyl ether (present invention): 20% by mass dye in dipentyl ether; for High temperature suitability, Decane (comparative): 20% by mass dye in n-decane
Description: Each dye composition was placed in a vial, and the vial was left standing in an oil bath without a cap at 180° C. for 2 hours. The mass of the vial after standing was weighed and evaluated according to the following evaluation criteria.
A: Decrease in the mass of the vial was less than 10%.
B: Decrease in the mass of the vial was 10% or more.

[4] = Relative dielectric constant of nonpolar solvent; details: 1 kHz, 20° C. and 40% RH
Description: The relative dielectric constant is determined by injecting a nonpolar solvent in a glass cell with a 10-μm cell gap provided with an ITO transparent electrode, and measuring the electrical capacity of the obtained cell using a 2353LCR METER manufactured by NF Corporation (measurement frequency: 1 kHz) at 20° C. and 40% RH.

Solubility Dihexyl ether [1]: 20 or more % by mass | Solubility n-Decane [1]: 20 or more % by mass | Low temperature suitability, Dihexyl ether (present invention) [2]: A | Low temperature suitability, Dipentyl ether (present invention) [2]: A | Low temperature suitability, Decane (comparative) [2]: B
SMILES: CCCCC(CC)CN(CC(CC)CCCC)c1ccc(/N=C2/C(C)=Nn3nc(C(C)(C)C)nc32)cc1 (stereo not drawn) [Dye P-2]
High temperature suitability, Dihexyl ether (present invention) [3]: A (Decrease in the mass of the vial was less than 10%.) | High temperature suitability, Dipentyl ether (present invention) [3]: A (Decrease in the mass of the vial was less than 10%.) | High temperature suitability, Decane (comparative) [3]: B (Decrease in the mass of the vial was 10% or more.)

relative dielectric constant ∈r [4]: 2.1
SMILES: CCCCCCCCCCCCOCCCCCCCCCCCC [didodecyl ether]

relative dielectric constant ∈r [4]: 2.1
SMILES: CCCCCOCCCCC [dipentyl ether]

The remaining lines, values behind:

SMILES: CCCCC(CC)CN(CC(CC)CCCC)c1ccc(/C=C2\C(=O)ON=C2C(C)(C)C)c(C)c1 (stereo not drawn) [Dye P-1]
Solubility Dihexyl ether [1]: 20 or more % by mass | Solubility n-Decane [1]: 20 or more % by mass | Low temperature suitability, Dihexyl ether (present invention) [2]: A | Low temperature suitability, Dipentyl ether (present invention) [2]: A | Low temperature suitability, Decane (comparative) [2]: B | High temperature suitability, Dihexyl ether (present invention) [3]: A (Decrease in the mass of the vial was less than 10%.) | High temperature suitability, Dipentyl ether (present invention) [3]: A (Decrease in the mass of the vial was less than 10%.) | High temperature suitability, Decane (comparative) [3]: B (Decrease in the mass of the vial was 10% or more.)

SMILES: C1CCC(OC2CCCCC2)CC1 [dicyclohexyl ether]
relative dielectric constant ∈r [4]: 2.1

SMILES: CCCCCCCOCCCCCCC [diheptyl ether]
relative dielectric constant ∈r [4]: 2.1

SMILES: CCCCCCOCCCCCC [dihexyl ether]
relative dielectric constant ∈r [4]: 2.1
